Measured values as given in patent US8470594B2, “Methods for identifying agents that affect the survival of motor neurons” (President and Fellows of Harvard College, priority 2008, dated 2013).

B1: Mcp2: cytokine over expressed in mutant glia; from Peprotech (protein, UniProt Q9Z121 24-97, looked up)
C-C motif chemokine 8: GPDKAPVTCCFHVLKLKIPLRVLKSYERINNIQCPMEAVVFQTKQGMSLCVDPTQKWVSEYMEILDQKSQILQP
B2: GMFb: glial maturation factor beta, shown to induce a pro-inflammatory state in astrocytes; from Peprotech (protein, UniProt Q9CQI3 2-142, looked up)
Glia maturation factor beta: SESLVVCDVAEDLVEKLRKFRFRKETHNAAIIMKIDKDERLVVLDEELEGVSPDELKDELPERQPRFIVYSYKYQHDDGRVSYPLCFIFSSPVGCKPEQQMMYAGSKNKLVQTAELTKVFEIRNTEDLTEEWLREKLGFFH

Tested on: Hb9::GFP human ES cell-derived motor neurons
Experiment: Survival of Hb9::GFP human ES cell-derived motor neurons in co-culture with non-transgenic (WT) glia
Assay type: cell-based
Details: non-transgenic (WT) mouse glia pretreated 1 day, 20 days of treatment; MCP2, Cxc17, Rantes 100 ng/ml; GMFb 250 ng/ml; PGD2 10 μM; Shh agonist 11M [sic]; n=3
Method: (§1) Differentiation of human Embryonic Stem Cells into motor neurons. For differentiation into motor neurons, the cells were allowed to reach 80-90% confluency, washed once with PBS, and then incubated for 15 minutes at 37° C. in a solution of 1 g/L Collagenase IV (GIBCO) in DMEM-F12 (GIBCO).
After 24 hours, the cells had aggregated to form embryoid bodies (EBs), and the media was changed to remove debris by centrifuging the EBs and resuspending in fresh in human ES cell media without bFGF2 or plasmanate in low attachment 6-well plates. EBs were cultured as such for 13 more days, with half of the media changed every two days, and a complete media change every week. After 14 days, the EBs were induced toward a caudal and ventral identity using retinoic acid (1 μM, Sigma) and an agonist of the Shh signaling pathway (1 μM) in N2 media: 1:1 DMEM:F-12+Glutamate (Gibco), 10,000 units Penicillin and 1 mg/mL Streptomicin (Gibco), 1% N2 Supplement (Gibco), 0.2 mM ascorbic acid (Sigma-Aldrich), 0.16% D-(+)-Glucose (Sigma-Aldrich), BDNF (10 ng/ml, R&D Systems), for another 14 days. The EBs were then matured for a final 14 days in N2 media with GNDF (10 ng/mL, R&D Systems). After 42 days of differentiation, the EBs were dissociated. To dissociate the EBs, they were centrifuged at 1000 rpm for 5 min in a 15 ml falcon tube, and then washed once with PBS to eliminate residual media. The EBs were then incubated for 60 minutes at 37° C. in Earle's Balanced Salt Solution with 20 units of papain and 1000 units of Deoxyribonuclease I (Worthington Biochemical Corporation). EBs were triturated using a 2 mL serological pipette every 15-20 minutes during this incubation. When an almost single cell suspension was achieved, the cells were centrifuged for 5 minutes at 1000 RPM. The resulting cell pellet was washed once with PBS and then resuspended in N2 media with neurotrophic factors (GDNF, and BDNF (10 ng/ml, R&D Systems)). These cells were then counted and plated on Poly-D-Lysine/Laminin CultureSlides (BD biosciences) or on a layer of primary glial cells. Depending on the experiment, motor neurons or interneurons were counted 10 or 20 days after plating.
Primary Glial Cultures. P1-P3 mouse pups transgenic for SOD1G93A, SOD1WT or non-transgenic pups were sacrificed by using an approved method of euthanasia. Under a dissection microscope, the parenquima were isolated and the meninges were carefully stripped away with fine forceps. The tissue was then dissected into small pieces and transferred to a solution containing 12 ml of HBSS, 1.5 ml of trypsin (GIBCO) and 1% DNAse (Sigma) and incubated at 37° C. for 15 min, swirling the mixture periodically. The supernatant containing the dissociated cells was then collected and 3 ml of serum was added to inhibit trypsin activity.
The cells were then centrifuged at 1000 rpm for 5 min, resuspended in Glia medium: (Minimun Essential Medium with Earl's salts (GIBCO), D-(+)-Glucose 20% (Sigma), Penicillin-streptomycin (GIBCO), 10% Horse Serum (GIBCO)) and plated at the concentration of 80,000 cells per mL in T75 flasks (Falcon). After the glia reached confluency, they were replated onto Poly-D-Lysine/Laminin CultureSlides (BD biosciences).
Non-transgenic glia were individually pretreated for 1 day with either one of the three cytokines MCP2, Cxc17, or Rantes; with GMFb; an agonist of SHH pathway; or with PGD2.

| Molecule | number of GFP positive motor neurons compared to the control condition |
| --- | --- |
| CCCCC[C@H](O)/C=C/[C@H]1C(=O)C[C@H](O)[C@@H]1C/C=C\CCCC(=O)O [PGD2, prostaglandin D2] | 19%+/−2% |
| CNC1CCC(N(Cc2cccc(-c3ccncc3)c2)C(=O)c2sc3ccccc3c2Cl)CC1 (stereo not drawn) [SHH agonist] | 97%+/−12% |
| Rantes | 108%+/−20% |
| B1 | 103%+/−8% |
| B2 | 95%+/−9% |

Tested on: Hb9::GFP human ES cell-derived motor neurons
Experiment: not given
Details: SOD1G93A glia pretreated 1 day, MK 0524 10 μM, 20 days; p<0.05; n=3
Method: as §1
After 24 hours, the cells had aggregated to form embryoid bodies (EBs), and the media was changed to remove debris by centrifuging the EBs and resuspending in fresh in human ES cell media without bFGF2 or plasmanate in low attachment 6-well plates. EBs were cultured as such for 13 more days, with half of the media changed every two days, and a complete media change every week. After 14 days, the EBs were induced toward a caudal and ventral identity using retinoic acid (1 μM, Sigma) and an agonist of the Shh signaling pathway (1 μM) in N2 media: 1:1 DMEM:F-12+Glutamate (Gibco), 10,000 units Penicillin and 1 mg/mL Streptomicin (Gibco), 1% N2 Supplement (Gibco), 0.2 mM ascorbic acid (Sigma-Aldrich), 0.16% D-(+)-Glucose (Sigma-Aldrich), BDNF (10 ng/ml, R&D Systems), for another 14 days. […] These cells were then counted and plated on Poly-D-Lysine/Laminin CultureSlides (BD biosciences) or on a layer of primary glial cells. Depending on the experiment, motor neurons or interneurons were counted 10 or 20 days after plating. […]

| Molecule | increase in the number of GFP positive neurons relative to untreated neurons plated on the same glia [%] |
| --- | --- |
| CS(=O)(=O)c1cc(F)cc2c3c(n(Cc4ccc(Cl)cc4)c12)[C@@H](CC(=O)O)CC3 [MK 0524] | 32 |
